Measurements taken from patent publication US8309546B2, “Morpholinopurine derivatives” (Daiichi Sankyo Company, Limited, priority 2008, dated 2012).

Assays:
[1] = target: T1, human mTOR (His-tagged mTOR (1362C)) (Homo sapiens, UniProt P42345); experiment: mTOR kinase activity inhibition assay; format: biochemical; settings: HTRF, read-out: IC50 against mTOR
T1 construct: the 1362 to 2549 amino acid portion on the C terminus side of human mTOR; His tag (N); made in house
How it was run: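 Crude His-tagged mTOR (aa 1362–2549) from stable HEK293 cells, with 8 μg/ml biotinylated peptide in 50 mM HEPES pH 7.5, 20 mM MnCl2; compound diluted in 20 μM ATP solution, reaction 3 h at room temperature. Phospho-peptide detected by HTRF (anti-phospho-S6K Thr389 cryptate/streptavidin-XL665, overnight at 4°C), 665/620 nm ratio. IC50 derived from curve fit of % inhibition.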

[2] = tested on: human ovary cancer cell strain IGROV1; experiment: Cell growth inhibition test (MTT), IGROV1; format: cell-based; settings: IGROV-1, 72 h, IGROV1, 3 days culture, read-out: concentration exhibiting anti-cell effect (GI50)
How it was run: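 AN3CA, IGROV1 and HT29 seeded at 5000, 1000 and 5000 cells/well; compound added next day, 3 days at 37° C, 5% CO2. MTT 4 h, formazan in DMSO read at 540 nm. GI50 is the concentration giving 50% growth rate (T/C %, corrected for day-of-addition absorbance), interpolated between two bracketing concentrations.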

T1 sequence (P42345 1362-2549): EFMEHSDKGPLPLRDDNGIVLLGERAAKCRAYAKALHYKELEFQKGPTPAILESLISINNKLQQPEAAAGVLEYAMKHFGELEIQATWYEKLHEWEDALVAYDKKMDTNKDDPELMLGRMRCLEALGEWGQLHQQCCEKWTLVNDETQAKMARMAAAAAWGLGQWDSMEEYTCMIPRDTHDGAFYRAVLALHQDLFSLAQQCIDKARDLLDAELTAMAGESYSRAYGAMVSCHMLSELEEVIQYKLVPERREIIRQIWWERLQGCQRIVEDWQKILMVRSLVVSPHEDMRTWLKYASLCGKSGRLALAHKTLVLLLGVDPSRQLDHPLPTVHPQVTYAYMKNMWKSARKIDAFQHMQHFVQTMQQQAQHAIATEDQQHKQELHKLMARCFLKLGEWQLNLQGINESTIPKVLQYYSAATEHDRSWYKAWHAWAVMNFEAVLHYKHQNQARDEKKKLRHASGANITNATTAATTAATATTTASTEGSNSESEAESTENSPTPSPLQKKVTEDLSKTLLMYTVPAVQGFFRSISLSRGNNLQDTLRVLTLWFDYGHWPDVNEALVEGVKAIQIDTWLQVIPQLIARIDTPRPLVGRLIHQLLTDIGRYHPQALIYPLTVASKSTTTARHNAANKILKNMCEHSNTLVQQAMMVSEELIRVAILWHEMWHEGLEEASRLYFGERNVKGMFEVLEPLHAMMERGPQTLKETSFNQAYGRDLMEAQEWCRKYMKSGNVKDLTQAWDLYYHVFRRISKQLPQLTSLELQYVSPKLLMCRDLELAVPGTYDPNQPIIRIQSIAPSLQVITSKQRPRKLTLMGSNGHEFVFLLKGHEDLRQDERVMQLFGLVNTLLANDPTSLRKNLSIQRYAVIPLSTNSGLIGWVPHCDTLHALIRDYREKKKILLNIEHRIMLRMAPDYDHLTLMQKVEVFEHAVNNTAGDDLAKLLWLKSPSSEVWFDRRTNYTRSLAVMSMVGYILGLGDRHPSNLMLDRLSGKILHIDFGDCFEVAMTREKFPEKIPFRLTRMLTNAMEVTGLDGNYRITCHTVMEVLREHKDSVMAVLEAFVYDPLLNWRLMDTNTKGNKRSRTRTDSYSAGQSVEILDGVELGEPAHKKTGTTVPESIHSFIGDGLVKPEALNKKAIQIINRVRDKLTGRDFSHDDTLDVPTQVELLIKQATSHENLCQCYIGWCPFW

| Compound | IC50 [1] [µM] | GI50 [2] [µM] |
| --- | --- | --- |
| C[C@H]1CN(c2nc3c(N4CCOCC4)nc(-c4cnc(N)nc4)nc3n2CC(F)(F)F)CCN1C=O [Example 111, (2S)-4-[2-(2-Aminopyrimidin-5-yl)-6-morpholin-4-yl-9-(2,2,2-trifluoroethyl)-9H-purin-8-yl]-2-methylpiperazine-1-carboaldehyde] | < 0.01 | ≤ 5 |
| C[C@@H]1CN(c2nc3c(N4CCOCC4)nc(-c4cnc(N)nc4)nc3n2CC(F)(F)F)CCN1C=O [Example 112, (2R)-4-[2-(2-Aminopyrimidin-5-yl)-6-morpholin-4-yl-9-(2,2,2-trifluoroethyl)-9H-purin-8-yl]-2-methylpiperazine-1-carboaldehyde] | < 0.01 | ≤ 5 |
| C[C@@H](O)C(=O)N1CCN(c2nc3c(N4CCOCC4)nc(-c4cnc(N)nc4)nc3n2CC2CC2)C[C@@H]1C [Example 113, (2R)-1-{(2S)-4-[2-(2-Aminopyrimidin-5-yl)-9-(cyclopropylmethyl)-6-morpholin-4-yl-9H-purin-8-yl]-2-methylpiperazin-1-yl}-1-oxopropan-2-ol] | < 0.01 | ≤ 5 |
| CC(=O)N1CCN(c2nc3c(N4CCOCC4)nc(-c4cnc(N)nc4)nc3n2CC(F)(F)F)CC12CC2 [Example 119, 5-[8-(4-Acetyl-4,7-diazaspiro[2.5]oct-7-yl)-6-morpholin-4-yl-9-(2,2,2-trifluoroethyl)-9H-purin-2-yl]pyrimidin-2-amine] | 0.01 to 0.03 | ≤ 5 |
| C[C@H]1COCCN1c1nc(-c2cnc(N)nc2)nc2c1nc(N1CCN(S(C)(=O)=O)CC1)n2CC(F)(F)F [Example 127, 5-{6-[(3S)-3-Methylmorpholin-4-yl]-8-[4-(methylsulfonyl)piperazin-1-yl]-9-(2,2,2-trifluoroethyl)-9H-purin-2-yl}pyrimidin-2-amine] | < 0.01 | ≤ 5 |

Further lines, results first:

| IC50 [1] [µM] | GI50 [2] [µM] | Compound |
| --- | --- | --- |
| < 0.01 | ≤ 5 | C[C@H](O)C(=O)N1CCN(c2nc3c(N4CCOCC4)nc(-c4cnc(N)nc4)nc3n2CC(F)(F)F)C[C@@H]1C [Example 109, (2S)-1-{(2S)-4-[2-(2-Aminopyrimidin-5-yl)-6-morpholin-4-yl-9-(2,2,2-trifluoroethyl)-9H-purin-8-yl]-2-methylpiperazin-1-yl}-1-oxopropan-2-ol] |
| < 0.01 | ≤ 5 | C[C@H](O)C(=O)N1CCN(c2nc3c(N4CCOCC4)nc(-c4cnc(N)nc4)nc3n2CC(F)(F)F)C[C@H]1C [Example 110, (2S)-1-{(2R)-4-[2-(2-Aminopyrimidin-5-yl)-6-morpholin-4-yl-9-(2,2,2-trifluoroethyl)-9H-purin-8-yl]-2-methylpiperazin-1-yl}-1-oxopropan-2-ol] |
| 0.01 to 0.03 | ≤ 5 | C[C@@H]1CN(c2nc3c(N4CCOCC4)nc(-c4cnc(N)nc4)nc3n2CC2CC2)CCN1C(=O)[C@@H](C)O [Example 114, (2R)-1-{(2R)-4-[2-(2-Aminopyrimidin-5-yl)-9-(cyclopropylmethyl)-6-morpholin-4-yl-9H-purin-8-yl]-2-methylpiperazin-1-yl}-1-oxopropan-2-ol] |
| < 0.01 | ≤ 5 | CC(=O)N1[C@H](C)CN(c2nc3c(N4CCOCC4)nc(-c4cnc(N)nc4)nc3n2CC(F)(F)F)C[C@@H]1C [Example 115, 5-[8-(4-Acetyl-cis-3,5-dimethylpiperazin-1-yl)-6-morpholin-4-yl-9-(2,2,2-trifluoroethyl)-9H-purin-2-yl]pyrimidin-2-amine] |
| < 0.01 | ≤ 5 | C[C@@H]1CN(c2nc3c(N4CCOCC4)nc(-c4cnc(N)nc4)nc3n2CC(F)(F)F)C[C@H](C)N1C=O [Example 116, 4-[2-(2-Aminopyrimidin-5-yl)-6-morpholin-4-yl-9-(2,2,2-trifluoroethyl)-9H-purin-8-yl]-cis-2,6-dimethylpiperazine-1-carboaldehyde] |
| < 0.01 | ≤ 5 | CCC(=O)N1CCN(c2nc3c(N4CCOCC4)nc(-c4cnc(N)nc4)nc3n2CC(F)(F)F)CC1 [Example 117, 5-[6-Morpholin-4-yl-8-(4-propionylpiperazin-1-yl)-9-(2,2,2-trifluoroethyl)-9H-purin-2-yl]pyrimidin-2-amine] |
